Experiments:
human CB2 receptors = human CB2 receptors (Homo sapiens (Human), UniProt P34972); assay: functional cAMP assay, CB2; format: cell-based; conditions: CHO cells expressing human CB2
Procedure: (§1) The growth medium was exchanged with Krebs Ringer Bicarbonate buffer with 1 mM IBMX and incubated at 30° C. for 30 min. Compounds were added to a final assay volume of 100 μl and incubated for 30 min at 30° C. Using the cAMP-Nano-TRF detection kit the assay (Roche Diagnostics) was stopped by the addition of 50 μl lysis reagent (Tris, NaCl, 1.5% Triton X100, 2.5% NP40, 10% NaN3) and 50 μl detection solutions (20 μM mAb Alexa700-cAMP 1:1, and 48 μM Ruthenium-2-AHA-cAMP) and shaken for 2 h at room temperature. The time-resolved energy transfer is measured by a TRF reader (Evotec Technologies GmbH), equipped with a ND:YAG laser as excitation source. The plate is measured twice with the excitation at 355 nm and at the emission with a delay of 100 ns and a gate of 100 ns, total exposure time 10 s at 730 (bandwidth 30 nm) or 645 nm (bandwidth 75 nm), respectively.
(§2) EC50 values were determined using Activity Base analysis (ID Business Solution, Limited).

human CB1 receptors = human CB1 receptors (Homo sapiens (Human), UniProt P21554); assay: functional cAMP assay, CB1; format: cell-based; conditions: CHO cells expressing human CB1
human CB1 receptors, sequence (P21554 whole entry): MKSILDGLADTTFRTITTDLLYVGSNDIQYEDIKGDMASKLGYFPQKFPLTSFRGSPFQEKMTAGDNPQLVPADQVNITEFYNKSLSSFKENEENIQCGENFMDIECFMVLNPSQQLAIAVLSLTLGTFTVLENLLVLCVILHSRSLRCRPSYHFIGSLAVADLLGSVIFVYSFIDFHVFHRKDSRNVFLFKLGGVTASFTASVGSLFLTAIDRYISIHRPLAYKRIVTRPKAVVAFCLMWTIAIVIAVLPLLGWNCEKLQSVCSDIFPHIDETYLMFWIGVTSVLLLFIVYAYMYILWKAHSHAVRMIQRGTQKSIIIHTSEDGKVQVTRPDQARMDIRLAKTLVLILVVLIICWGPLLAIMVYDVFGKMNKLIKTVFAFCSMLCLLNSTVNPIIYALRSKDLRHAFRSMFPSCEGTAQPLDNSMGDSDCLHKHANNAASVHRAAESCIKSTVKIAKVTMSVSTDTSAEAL
Procedure: as §1, §2

human CB2 receptors, sequence (P34972 whole entry): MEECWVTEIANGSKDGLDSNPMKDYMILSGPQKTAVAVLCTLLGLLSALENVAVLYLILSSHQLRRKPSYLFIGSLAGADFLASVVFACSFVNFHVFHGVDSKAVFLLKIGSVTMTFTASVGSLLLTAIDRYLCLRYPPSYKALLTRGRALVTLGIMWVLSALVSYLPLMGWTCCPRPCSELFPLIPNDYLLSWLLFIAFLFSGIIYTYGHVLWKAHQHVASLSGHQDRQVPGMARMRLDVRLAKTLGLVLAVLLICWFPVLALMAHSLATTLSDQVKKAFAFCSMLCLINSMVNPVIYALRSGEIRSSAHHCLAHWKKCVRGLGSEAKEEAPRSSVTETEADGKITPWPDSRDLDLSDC

Compound	EC50 (human CB2 receptors)	EC50 (human CB1 receptors)
CC(C)(C)c1nc(N2CCC(F)(F)C2)c2ncn(CC3CCCCC3)c2n1 [Example 8, 2-tert-butyl-9-(cyclohexylmethyl)-6-(3,3-difluoropyrrolidin-1-yl)purine]	75.3 nM	> 10 µM
CCn1cnc2c(N3CCC(F)(F)C3)nc(C(C)(C)C)nc21 [Example 9, 2-tert-butyl-6-(3,3-difluoropyrrolidin-1-yl)-9-ethylpurine]	48.8 nM	> 10 µM
Cc1nnc(Cn2cnc3c(N4CCC(F)(F)C4)nc(C(C)(C)C)nc32)o1 [Example 11, 2-[[2-tert-butyl-6-(3,3-difluoropyrrolidin-1-yl)purin-9-yl]methyl]-5-methyl-1,3,4-oxadiazole]	61.7 nM	> 10 µM
CC(C)(C)c1nc(N2CCC(F)(F)C2)c2ncn(C3CCOC3)c2n1 (stereo not drawn) [Example 12, 2-tert-butyl-6-(3,3-difluoropyrrolidin-1-yl)-9-(oxolan-3-yl)purine]	3.1 nM	> 10 µM
Cn1nnnc1Cn1cnc2c(N3CCC(F)(F)C3)nc(C(C)(C)C)nc21 [Example 14, 2-tert-butyl-6-(3,3-difluoropyrrolidin-1-yl)-9-[(1-methyltetrazol-5-yl)methyl]purine]	23 nM	> 10 µM
Cc1nonc1Cn1cnc2c(N3CCC(F)(F)C3)nc(C(C)(C)C)nc21 [Example 16, 3-[[2-tert-butyl-6-(3,3-difluoropyrrolidin-1-yl)purin-9-yl]methyl]-4-methyl-1,2,5-oxadiazole]	6 nM	> 10 µM
CC(C)(C)c1nc(N2CCC(F)(F)C2)c2ncn(CC(=O)c3ccccc3Cl)c2n1 [Example 17, 2-[2-tert-butyl-6-(3,3-difluoropyrrolidin-1-yl)purin-9-yl]-1-(2-chlorophenyl)ethanone]	3.5 nM	> 10 µM
CC(C)(C)c1nc(N2CCC(F)(F)C2)c2ncn(Cc3ccccc3S(C)(=O)=O)c2n1 [Example 18, 2-tert-butyl-6-(3,3-difluoropyrrolidin-1-yl)-9-[(2-methylsulfonylphenyl)methyl]purine]	3.3 nM	> 10 µM
COc1ccc(Cn2cnc3c(N4CCC(F)(F)C4)nc(C(C)(C)C)nc32)cc1 [Example 20, 2-tert-butyl-6-(3,3-difluoropyrrolidin-1-yl)-9-[(4-methoxyphenyl)methyl]purine]	12.5 nM	> 10 µM
CC(C)(C)c1nc(N2CCC(F)(F)C2)c2ncn(Cc3ncccc3Cl)c2n1 [Example 21, 2-tert-butyl-9-[(3-chloropyridin-2-yl)methyl]-6-(3,3-difluoropyrrolidin-1-yl)purine]	2.2 nM	> 10 µM
CC(C)(C)c1nc(N2CCC(O)C2)c2ncn(Cc3ccccc3Cl)c2n1 (stereo not drawn) [Example 22, 1-[2-tert-butyl-9-[(2-chlorophenyl)methyl]purin-6-yl]pyrrolidin-3-ol]	5.7 nM	> 10 µM
CC(C)(C)c1nc(N2CCC(F)(F)C2)c2ncn(CCc3cccnc3)c2n1 [Example 23, 2-tert-butyl-6-(3,3-difluoropyrrolidin-1-yl)-9-(2-pyridin-3-ylethyl)purine]	4.4 nM	> 10 µM
CC(C)(C)c1nc(N2CCC(F)(F)C2)c2ncn(CC(=O)c3ccccn3)c2n1 [Example 24, 2-[2-tert-butyl-6-(3,3-difluoropyrrolidin-1-yl)purin-9-yl]-1-pyridin-2-ylethanone]	69.2 nM	> 10 µM
CC(C)(C)c1nc(N2CCC(O)C2)c2ncn(Cc3cccc(Cl)c3)c2n1 (stereo not drawn) [Example 25, 1-[2-tert-butyl-9-[(3-chlorophenyl)methyl]purin-6-yl]pyrrolidin-3-ol]	58.8 nM	> 10 µM
CC(C)(C)c1nc(N2CCC(F)(F)C2)c2ncn(C3CS(=O)(=O)C3)c2n1 [Example 27, 3-[2-tert-butyl-6-(3,3-difluoropyrrolidin-1-yl)purin-9-yl]thietane 1,1-dioxide]	14.1 nM	> 10 µM
CC(C)(C)c1nc(N2CCC(O)C2)c2ncn(Cc3ccccc3C(F)(F)F)c2n1 (stereo not drawn) [Example 28, 1-[2-tert-butyl-9-[[2-(trifluoromethyl)phenyl]methyl]purin-6-yl]pyrrolidin-3-ol]	1 nM	> 10 µM
Cc1noc(Cn2cnc3c(N4CCC(O)C4)nc(C(C)(C)C)nc32)n1 (stereo not drawn) [Example 29, 1-[2-tert-butyl-9-[(3-methyl-1,2,4-oxadiazol-5-yl)methyl]purin-6-yl]pyrrolidin-3-ol]	427 nM	> 10 µM
Cn1nnnc1Cn1cnc2c(N3CCC(O)C3)nc(C(C)(C)C)nc21 (stereo not drawn) [Example 30, 1-[2-tert-butyl-9-[(1-methyltetrazol-5-yl)methyl]purin-6-yl]pyrrolidin-3-ol]	301 nM	> 10 µM

Compound	EC50 (human CB2 receptors)	EC50 (human CB1 receptors)
COc1ccc(Cn2cnc3c(N4CCC(O)C4)nc(C(C)(C)C)nc32)cc1 (stereo not drawn) [Example 31, 1-[2-tert-butyl-9-[(4-methoxyphenyl)methyl]purin-6-yl]pyrrolidin-3-ol]	21.4 nM	> 10 µM
CC(C)(C)c1nc(N2CCC(O)C2)c2ncn(Cc3ncccc3Cl)c2n1 (stereo not drawn) [Example 32, 1-[2-tert-butyl-9-[(3-chloropyridin-2-yl)methyl]purin-6-yl]pyrrolidin-3-ol]	3.4 nM	> 10 µM
CC(C)(C)c1nc(N2CCC(O)C2)c2ncn(Cc3cccnc3Cl)c2n1 (stereo not drawn) [Example 33, 1-[2-tert-butyl-9-[(2-chloropyridin-3-yl)methyl]purin-6-yl]pyrrolidin-3-ol]	3.4 nM	> 10 µM
CC(C)(C)c1nc(N2CCC(O)C2)c2ncn(Cc3ccccc3S(C)(=O)=O)c2n1 (stereo not drawn) [Example 34, 1-[2-tert-butyl-9-[(2-methylsulfonylphenyl)methyl]purin-6-yl]pyrrolidin-3-ol]	9 nM	> 10 µM
CCn1cnc2c(N3CCC(O)C3)nc(C(C)(C)C)nc21 (stereo not drawn) [Example 35, 1-(2-tert-butyl-9-ethylpurin-6-yl)pyrrolidin-3-ol]	432 nM	> 10 µM
COCCn1cnc2c(N3CCC(O)C3)nc(C(C)(C)C)nc21 (stereo not drawn) [Example 37, 1-[2-tert-butyl-9-(2-methoxyethyl)purin-6-yl]pyrrolidin-3-ol]	274 nM	> 10 µM
CC(C)(C)c1nc(N2CCC(O)C2)c2ncn(CCc3ccccc3)c2n1 (stereo not drawn) [Example 38, 1-[2-tert-butyl-9-(2-phenylethyl)purin-6-yl]pyrrolidin-3-ol]	20.3 nM	> 10 µM
Cc1ccc(Cn2cnc3c(N4CCC(O)C4)nc(C(C)(C)C)nc32)cc1 (stereo not drawn) [Example 39, 1-[2-tert-butyl-9-[(4-methylphenyl)methyl]purin-6-yl]pyrrolidin-3-ol]	16.9 nM	> 10 µM
CC(C)(C)c1nc(N2CCC(O)C2)c2ncn(CC3CCCCC3)c2n1 (stereo not drawn) [Example 40, 1-[2-tert-butyl-9-(cyclohexylmethyl)purin-6-yl]pyrrolidin-3-ol]	71.2 nM	> 10 µM
CC(C)(C)c1nc(N2CCC(O)C2)c2ncn(Cc3ccc(F)cc3Cl)c2n1 (stereo not drawn) [Example 42, 1-[2-tert-butyl-9-[(2-chloro-4-fluorophenyl)methyl]purin-6-yl]pyrrolidin-3-ol]	3.7 nM	> 10 µM
Cc1nonc1Cn1cnc2c(N3CCC(O)C3)nc(C(C)(C)C)nc21 (stereo not drawn) [Example 43, 1-[2-tert-butyl-9-[(4-methyl-1,2,5-oxadiazol-3-yl)methyl]purin-6-yl]pyrrolidin-3-ol]	16.6 nM	> 10 µM
CC(C)(C)c1nc(N2CCC(O)C2)c2ncn(Cc3c[nH]nc3C(F)(F)F)c2n1 (stereo not drawn) [Example 44, 1-[2-tert-butyl-9-[[3-(trifluoromethyl)-1H-pyrazol-4-yl]methyl]purin-6-yl]pyrrolidin-3-ol]	14.8 nM	> 10 µM
CC(C)(C)c1nc(N2CCC(O)C2)c2ncn(CCC(F)(F)F)c2n1 (stereo not drawn) [Example 45, 1-[2-tert-butyl-9-(3,3,3-trifluoropropyl)purin-6-yl]pyrrolidin-3-ol]	49.6 nM	> 10 µM
CC(C)(C)c1nc(N2CCC(O)C2)c2ncn(C3CCOC3)c2n1 (stereo not drawn) [Example 46, 1-[2-tert-butyl-9-(oxolan-3-yl)purin-6-yl]pyrrolidin-3-ol]	139 nM	> 10 µM
CC(C)(C)c1nc(N2CCC(O)C2)c2ncn(CC(=O)c3ccccc3Cl)c2n1 (stereo not drawn) [Example 47, 2-[2-tert-butyl-6-(3-hydroxypyrrolidin-1-yl)purin-9-yl]-1-(2-chlorophenyl)ethanone]	102 nM	> 10 µM
CC(=O)N[C@H]1CCN(c2nc(C(C)(C)C)nc3c2ncn3Cc2cccc(Cl)c2)C1 [Example 49, N—[(S)-1-[2-tert-butyl-9-[(3-chlorophenyl)methyl]purin-6-yl]pyrrolidin-3-yl]acetamide]	311 nM	> 10 µM
CC(=O)N[C@H]1CCN(c2nc(C(C)(C)C)nc3c2ncn3Cc2ccc(Cl)cc2)C1 [Example 50, N—[(S)-1-[2-tert-butyl-9-[(4-chlorophenyl)methyl]purin-6-yl]pyrrolidin-3-yl]acetamide]	534 nM	> 10 µM
CC(=O)N[C@H]1CCN(c2nc(C(C)(C)C)nc3c2ncn3Cc2ccccc2C(F)(F)F)C1 [Example 51, N—[(S)-1-[2-tert-butyl-9-[[2-(trifluoromethyl)phenyl]methyl]purin-6-yl]pyrrolidin-3-yl]acetamide]	64.7 nM	> 10 µM

Source: patent publication US9505762B2, “Purine derivatives as CB2 receptor agonists” (Hoffmann-La Roche Inc., priority 2013, dated 2016)
